Test results published in the supplement of paper PMC10307832.

How the values were obtained:
Experiment in all cases: relative viability (nuclei count vs DMSO), 5 days (fraction); higher = more cells survive
[1] = compound: CN(C)CC1=CC(=CC=C1)N=C(C2=CC=CC=C2)C3=C(NC4=C3C=CC(=C4)C(=O)N(C)C)O + CC1(C)CCC(c2ccc(Cl)cc2)=C(CN2CCN(c3ccc(C(=O)NS(=O)(=O)c4ccc(N[C@H](CCN5CCOCC5)CSc5ccccc5)c(S(=O)(=O)C(F)(F)F)c4)cc3)CC2)C1 [Navitoclax] (partner 0.5 µM)
Summary of the method: (§1)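 One day after seeding in 1536-well plates, lung cancer cell lines were dosed by pin tool. Dosing was either single-drug or a fixed anchor-drug dose plus five library-drug doses (not always all listed) in √10 steps. After 5 days, nuclei were stained in one fix-and-stain step and counted on 4× images, and relative viability is the nuclei count of treated wells over that of vehicle wells, given as the median of duplicate plates.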

[2] = compound: CN(C)CC1=CC(=CC=C1)N=C(C2=CC=CC=C2)C3=C(NC4=C3C=CC(=C4)C(=O)N(C)C)O + C[C@@H](Oc1cc(-c2cnn(C3CCNCC3)c2)cnc1N)c1c(Cl)ccc(F)c1Cl [Crizotinib] (partner 1 µM)
Summary of the method: as §1

[3] = compound: CN(C)CC1=CC(=CC=C1)N=C(C2=CC=CC=C2)C3=C(NC4=C3C=CC(=C4)C(=O)N(C)C)O + Cc1cc(Nc2cc(N3CCN(C)CC3)nc(Sc3ccc(NC(=O)C4CC4)cc3)n2)n[nH]1 [Tozasertib] (partner 0.1 µM)
Summary of the method: as §1

[4] = compound: CN(C)CC1=CC(=CC=C1)N=C(C2=CC=CC=C2)C3=C(NC4=C3C=CC(=C4)C(=O)N(C)C)O + O=C(CCCCCCC(=O)Nc1ccccc1)NO [Vorinostat] (partner 1 µM)
Summary of the method: as §1

Cell Line	relative viability ([1]; first compound 0.08 µM)	relative viability ([1]; first compound 0.253 µM)	relative viability ([1]; first compound 0.8 µM)	relative viability ([1]; first compound 2.53 µM)	relative viability ([1]; first compound 8 µM)	relative viability ([2]; first compound 0.08 µM)	relative viability ([2]; first compound 0.253 µM)	relative viability ([2]; first compound 0.8 µM)	relative viability ([2]; first compound 2.53 µM)	relative viability ([2]; first compound 8 µM)	relative viability ([3]; first compound 0.08 µM)	relative viability ([3]; first compound 0.253 µM)	relative viability ([3]; first compound 0.8 µM)	relative viability ([3]; first compound 2.53 µM)	relative viability ([3]; first compound 8 µM)	relative viability ([4]; first compound 0.08 µM)	relative viability ([4]; first compound 0.253 µM)	relative viability ([4]; first compound 0.8 µM)	relative viability ([4]; first compound 2.53 µM)	relative viability ([4]; first compound 8 µM)
NCI-H1650	1.23	1.16	1.3	1.15	1.08	1.14	0.956	1.03	0.977	0.749	0.352	0.498	0.421	0.405	0.343	0.619	0.698	0.444	0.546	0.652
201T	1.2	1.23	1.14	1.17	1.18	1.03	1.03	1.02	1.02	0.981	0.937	0.97	0.857	0.904	0.809	0.988	0.961	0.908	0.946	0.879
NCI-H1666	0.983	1.14	1.02	1.07	1.1	1.24	1.04	0.933	1.14	1.13	0.642	0.59	0.675	0.603	0.868	1.06	1.09	0.956	1.01	1.34
LXF-289	0.959	0.911	0.946	0.945	0.809	0.871	0.762	0.758	0.773	0.757	0.174	0.19	0.137	0.159	0.197	0.778	0.745	0.756	0.72	0.727
LC-2-ad	0.456	0.515	0.429	0.515	0.338	0.406	0.402	0.486	0.4	0.441	0.503	0.409	0.415	0.492	0.407	0.694	0.699	0.727	0.681	0.622
NCI-H1993	0.935	1.02	0.885	0.933	1.09	0.761	0.845	0.628	0.89	0.876	0.623	0.525	0.524	0.584	0.646	0.904	0.79	–	1.14	0.994
NCI-H441	0.632	0.391	0.619	0.647	0.565	0.463	0.748	1.04	0.627	0.629	0.625	0.603	0.67	0.634	0.588	0.852	0.86	1.01	0.613	0.805
EKVX	0.908	0.82	0.956	0.885	1	0.842	0.921	1.03	0.879	0.981	0.445	0.387	0.459	0.378	0.323	0.778	0.726	0.648	0.858	0.773
NCI-H1437	1.2	1.08	1.09	1.06	1.12	0.898	0.949	0.992	0.813	0.959	0.431	0.443	0.37	0.387	0.4	0.918	0.886	0.975	0.943	1.1
PC-3 [JPC-3]	0.787	0.703	0.643	0.84	0.843	0.968	0.983	0.824	0.985	1.07	0.877	0.855	0.854	0.814	0.922	0.853	0.834	0.682	0.883	1.03
UMC-11	0.357	0.269	0.264	0.328	0.32	0.62	0.711	0.662	0.468	0.588	0.202	0.192	0.216	0.183	0.216	0.318	0.399	0.41	0.364	0.34
NCI-H520	1.04	1.23	1.07	1.05	0.953	0.713	0.722	0.833	0.705	0.71	0.45	0.373	0.425	0.454	0.386	0.715	0.644	0.831	0.621	0.536
NCI-H727	0.574	0.428	0.371	0.471	0.498	0.772	0.808	0.78	0.795	0.699	0.361	0.721	0.608	0.647	0.486	–	0.972	1.35	1.45	1.23
SK-MES-1	1.25	1.26	1.09	1.15	1.1	0.946	1.03	0.956	0.883	0.939	0.846	0.944	0.892	0.849	0.824	1.13	1.08	1.08	1.01	1.03
NCI-H1975	1.07	1.06	0.989	1.08	1.06	0.969	1.07	0.842	0.859	0.822	0.807	0.785	0.736	0.757	0.708	0.709	0.669	0.705	0.661	0.604
ChaGo-K-1	1.16	1.17	1.27	–	1	1.18	1.1	1.1	–	1.11	0.235	0.25	0.217	0.22	0.213	0.753	0.737	0.795	0.738	0.777
